Assay results reported in patent US20250161201A1, “COSMETIC COMPOSITION” (THE BOOTS COMPANY PLC, priority 2022, published 2025).

Tests used:
[1] = test system: normal human epidermal keratinocytes (NHEK); test: Preliminary cytotoxicity assay (WST-8) in keratinocytes; assay type: cell-based; conditions: 24 hours treatment, WST-8, ingredient on its own
Description: Normal human epidermal keratinocytes (NHEK) were seeded in 24-well plates and placed in culture medium (Keratinocyte-serum free media (SFM) supplemented with Epidermal Growth Factor at concentration 0.025 ug/ml and Pituitary extract at concentration of 0.05 mg/ml) for 24 hours. To determine suitable non-toxic ingredient concentrations, a cytotoxicity assay was first carried out where the NHEKs were treated with ingredients or ingredient blends for 24 hours before being incubated with WST-8 (highly water-soluble tetrazolium salt) which is reduced to a water-soluble orange coloured product (formazan) by viable, living cells and is quantified by optical density measurement at 450 nm using a spectrophotometer (VERSAmax, Molecular Devices). This reduction is proportional to the number of living cells and their metabolic activity

[2] = test system: Interleukin-8 (IL-8) mRNA; test: IL-8 mRNA expression by RT-qPCR in NHEK; assay type: cell-based, human; conditions: 24 hours, used on its own, vs media only control
Description: Interleukin 8 is a measurable biomarker for inflammation. The effectiveness of the presently described compositions in reducing inflammation, and promoting skin barrier repair, are assessed by measuring the reduction in the expression of Interleukin-8 (IL-8) in the skin cells tested. Over expression of IL-8 in the epidermis can lead to disruption of epidermal homeostasis i.e. disruption of the skin cell differentiation, proliferation and desquamation processes.
In the present experiment, the effects of compounds were assessed in normal human epidermal keratinocytes (NHEK). More specifically, the effects of these compounds were evaluated using real time polymerase chain reaction (RT-qPCR) technology. […]
IL-8 mRNA expression was analysed using RT-qPCR as part of this array. […] The amount and quality of mRNA was evaluated using capillary electrophoresis with a Bioanalyzer 2100 (Agilent technologies). […] The cDNA quantities were then diluted if necessary, to achieve equal amount of cDNA concentration in each test sample, before carrying out PCR (Polymerase Chain Reaction) using the LightCycler (trade name) system (commercially available from Roche Molecular System Inc.) according to the supplier's instructions. […] The more copies of DNA/cDNA that have been produced through PCR, the more SYBR Green molecules will bind the DNA/cDNA and the higher the level of fluorescence. […]

NC(=O)c1cccnc1 [Niacinamide, niacinamide]
maximum concentration usable without causing a loss in viability or death of the epidermal keratinocytes [1]: 500 ppm | increase of IL-8 mRNA expression [2]: 18%
